Source: ChEMBL document CHEMBL3525955, “Glucuronidation of the red clover isoflavone irilone by liver microsomes from different species and human UDP-glucuronosyltransferases” (Drug Metab Dispos, 2011)

How the values were obtained:
Liver microsome [1] = assay: Drug metabolism in Sprague-Dawley rat liver microsomes assessed as IRI-O-5-monoglucuronide formation incubated for 5 mins prior to UDPGA addition measured after 90 mins by Eadie-Hoftsee plot analysis; format: ADME; details: 1.5 h
Liver microsome [2] = assay: Drug metabolism in Sprague-Dawley rat liver microsomes assessed as substrate inhibition of IRI-O-5-monoglucuronide formation incubated for 5 mins prior to UDPGA addition measured after 90 mins by Eadie-Hoftsee plot analysis; format: ADME
[3] = target: T1, UDP-glucuronosyltransferase 1A1 (Homo sapiens, UniProt P22309); assay: Substrate inhibition of human recombinant UGT1A1 assessed as IRI-O-5-monoglucuronide formation incubated for 5 mins prior to UDPGA addition measured after 90 mins by Eadie-Hoftsee plot analysis; format: ADME
T1 sequence (P22309 whole entry): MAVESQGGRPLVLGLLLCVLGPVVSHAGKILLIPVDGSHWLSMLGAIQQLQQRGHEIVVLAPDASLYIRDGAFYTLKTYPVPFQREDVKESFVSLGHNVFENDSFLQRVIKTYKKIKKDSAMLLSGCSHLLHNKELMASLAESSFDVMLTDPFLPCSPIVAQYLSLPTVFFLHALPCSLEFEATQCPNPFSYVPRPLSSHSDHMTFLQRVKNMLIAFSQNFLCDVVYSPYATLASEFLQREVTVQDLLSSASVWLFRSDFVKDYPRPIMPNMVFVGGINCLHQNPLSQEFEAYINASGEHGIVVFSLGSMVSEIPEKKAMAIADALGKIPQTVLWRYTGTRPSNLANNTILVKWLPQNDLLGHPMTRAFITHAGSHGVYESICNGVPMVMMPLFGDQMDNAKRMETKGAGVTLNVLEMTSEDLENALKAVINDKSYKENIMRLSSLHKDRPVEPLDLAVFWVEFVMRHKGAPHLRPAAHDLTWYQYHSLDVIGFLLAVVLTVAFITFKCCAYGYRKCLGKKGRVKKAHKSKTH

[4] = target: T2, UDP-glucuronosyltransferase 1A9 (Homo sapiens, UniProt O60656); assay: Activity of human recombinant UGT1A9 assessed as intrinsic clearance incubated for 5 mins prior to UDPGA addition measured after 90 mins; format: ADME; details: recombinant enzyme, 1.5 h
T2 sequence (O60656 whole entry): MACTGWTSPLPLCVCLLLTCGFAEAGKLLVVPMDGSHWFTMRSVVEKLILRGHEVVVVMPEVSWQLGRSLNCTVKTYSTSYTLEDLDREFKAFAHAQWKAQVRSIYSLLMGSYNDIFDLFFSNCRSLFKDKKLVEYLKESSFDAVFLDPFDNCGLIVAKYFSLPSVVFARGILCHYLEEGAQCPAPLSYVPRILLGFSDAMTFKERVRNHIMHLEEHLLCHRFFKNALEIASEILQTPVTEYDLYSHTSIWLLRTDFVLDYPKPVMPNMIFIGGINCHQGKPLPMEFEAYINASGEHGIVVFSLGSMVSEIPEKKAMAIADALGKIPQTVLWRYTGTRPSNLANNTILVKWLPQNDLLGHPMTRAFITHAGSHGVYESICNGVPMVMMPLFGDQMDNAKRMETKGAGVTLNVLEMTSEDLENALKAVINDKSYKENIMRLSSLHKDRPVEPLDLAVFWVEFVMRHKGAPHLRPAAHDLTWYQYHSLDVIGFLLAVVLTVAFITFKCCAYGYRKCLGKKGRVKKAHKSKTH

[5] = target: T3, UDP-glucuronosyltransferase 1A7 (Homo sapiens, UniProt Q9HAW7); assay: Activity of human recombinant UGT1A7 assessed as intrinsic clearance incubated for 5 mins prior to UDPGA addition measured after 90 mins; format: ADME; details: recombinant enzyme, 1.5 h
T3 sequence (Q9HAW7 whole entry): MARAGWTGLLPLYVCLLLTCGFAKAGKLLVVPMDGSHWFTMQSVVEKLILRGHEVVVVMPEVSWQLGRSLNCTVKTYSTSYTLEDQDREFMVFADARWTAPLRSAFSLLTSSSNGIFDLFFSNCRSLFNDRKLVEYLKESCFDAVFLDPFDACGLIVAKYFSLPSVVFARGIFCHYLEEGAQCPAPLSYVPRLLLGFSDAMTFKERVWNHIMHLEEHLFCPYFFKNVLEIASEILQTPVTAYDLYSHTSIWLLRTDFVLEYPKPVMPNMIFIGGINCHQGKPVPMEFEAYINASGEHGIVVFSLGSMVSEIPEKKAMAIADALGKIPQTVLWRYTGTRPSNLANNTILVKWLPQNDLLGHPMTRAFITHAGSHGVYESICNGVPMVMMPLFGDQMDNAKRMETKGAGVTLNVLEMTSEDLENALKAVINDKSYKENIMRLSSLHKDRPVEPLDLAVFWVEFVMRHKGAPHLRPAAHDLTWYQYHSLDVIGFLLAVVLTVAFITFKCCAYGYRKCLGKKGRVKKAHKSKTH

[6] = target: T1, UDP-glucuronosyltransferase 1A1; assay: Drug metabolism assessed as human recombinant UGT1A1-mediated irilone-O-4'-monoglucuronide formation at 25 uM incubated for 5 mins prior to UDPGA addition measured after 90 mins by HPLC-DAD analysis; format: ADME; details: recombinant enzyme, 1.5 h
[7] = Drug metabolism in pig liver microsomes assessed as IRI-O-5-monoglucuronide formation incubated for 5 mins prior to UDPGA addition measured after 90 mins by Eadie-Hoftsee plot analysis; format: ADME, Sus scrofa; details: 1.5 h
[8] = Drug metabolism in pig liver microsomes assessed as IRI-O-4'-monoglucuronide formation incubated for 5 mins prior to UDPGA addition measured after 90 mins by Eadie-Hoftsee plot analysis; format: ADME, Sus scrofa; details: 1.5 h
Liver microsome [9] = assay: Drug metabolism in human liver microsomes assessed as substrate inhibition of IRI-O-5-monoglucuronide formation incubated for 5 mins prior to UDPGA addition measured after 90 mins by Eadie-Hoftsee plot analysis; format: ADME
Liver microsome [10] = assay: Drug metabolism in human liver microsomes assessed as IRI-O-4'-monoglucuronide formation incubated for 5 mins prior to UDPGA addition measured after 90 mins by Eadie-Hoftsee plot analysis; format: ADME; details: 1.5 h
[11] = target: T1, UDP-glucuronosyltransferase 1A1; assay: Activity of human recombinant UGT1A1 assessed as intrinsic clearance incubated for 5 mins prior to UDPGA addition measured after 90 mins; format: ADME; details: recombinant enzyme, 1.5 h

O=c1c(-c2ccc(O)cc2)coc2cc3c(c(O)c12)OCO3
Km (Liver microsome [1]): 34 µM | Vmax (Liver microsome [1]): 1.37 nmol/mg/min | Ki (Liver microsome [2]): 65.3 µM | Ki [3]: 8.5 µM | CL [4]: 53300 µL/min/mg | CL [5]: 3900 µL/min/mg | Drug metabolism [6]: metabolite_detected | Km [7]: 16.8 µM | Vmax [7]: 0.28 nmol/mg/min | Km [8]: 88.6 µM | Vmax [8]: 4.87 nmol/mg/min | Ki (Liver microsome [9]): 96.9 µM | Km (Liver microsome [10]): 64.7 µM | Vmax (Liver microsome [10]): 0.34 nmol/mg/min | CL [11]: 27200 µL/min/mg
